Measurements reported in patent US20240109915A1, “NOVEL ACC INHIBITORS” (Pfizer Inc., priority 2022, published 2024).

Target: recombinant human ACC1 (rhACC1) (Homo sapiens (Human), UniProt Q13085)
Assay: Transcreener ADP detection FP assay, direct inhibition of rhACC1
Type: biochemical
Conditions: Geomean IC50, n ≥ 2 unless * then n = 1; 50 μM ATP, 30 μM acetyl-CoA
Protocol: The direct inhibition of ACC1 for the compounds of the present invention was determined using preparations of recombinant human ACC1 (rhACC1) (SEQ ID NO. 1)
Two liters of SF9 cells, infected with recombinant baculovirus containing full length human ACC1 cDNA, were suspended in ice-cold lysis buffer (25 mM Tris, pH 7.5; 150 mM NaCl; 10% glycerol; 5 mM imidazole (EMD Bioscience; Gibbstown, NJ); 2 mM TCEP (BioVectra; Charlottetown, Canada); Benzonase nuclease (10000 U/100 g cell paste; Novagen; Madison, WI); EDTA-free protease inhibitor cocktail (1 tab/50 ml; Roche Diagnostics; Mannheim, Germany). Cells were lysed by 3 cycles of freeze-thaw and centrifuged at 40,000×g for 40 minutes (4° C.). Supernatant was directly loaded onto a HisTrap FF crude column (GE Healthcare; Piscataway, NJ) and eluted with an imidazole gradient up to 0.5 M over 20 column volumes (CV). ACC1-containing fractions were pooled and diluted 1:5 with 25 mM Tris, pH 7.5, 2 mM TCEP, 10% glycerol and direct loaded onto a CaptoQ (GE Healthcare) column and eluted with an NaCl gradient up to 1 M over 20 CV's. Phosphate groups were removed from purified ACC1 by incubation with lambda phosphatase (100 U/10 μM target protein; New England Biolabs; Beverly, MA) for 14 hours at 4° C.; okadaic acid was added (1 μM final concentration; Roche Diagnostics) to inhibit the phosphatase. Purified ACC1 was exchanged into 25 mM Tris, pH 7.5, 2 mM TCEP, 10% glycerol, 0.5 M NaCl by 6 hour dialysis at 4° C. Aliquots were prepared and frozen at −80° C.
Measurement of rhACC1 Inhibition rhACC1 was assayed in a Corning #3820 (Corning, Tewksbury, MA) 384-well plate using the Transcreener ADP detection FP assay kit (Bellbrook Labs, Madison, Wisconsin) using the manufacturer's recommended conditions for a 50 μM ATP reaction. The final conditions for the assay were 50 mM HEPES, pH 7.2, 10 mM MgCl2, 7.5 mM tripotassium citrate, 2 mM DTT, 0.1 mg/mL BSA, 30 μM acetyl-CoA, 50 μM ATP, and 10 mM KHCO3. Typically, a […] was run for 60 min at room temp, and 10 μl of Transcreener stop and detect buffer was added and the combination incubated at room temp for an overnight (18 hours). The data was acquired on an Envision Fluorescence reader (PerkinElmer) using a 620 excitation Cy5 FP general dual mirror, 620 excitation Cy5 FP filter, 688 emission (S) and a 688 (P) emission filter.

IC50 [nM] | SMILES
5.3 | COc1cc(C(=O)N2CCC3(CC2)CC(=O)c2nc(C(C)(C)C)sc2C3)cc2c(C)nn(C)c12 [Example 13, 2-(tert-butyl)-1′-(7-methoxy-1,3-dimethyl-1H-indazole-5-carbonyl)-5H-spiro[benzo[d]thiazole-6,4′-piperidin]-4(7H)-one]
3.4 | CNc1cnc2c(C)cc(C(=O)N3CCC4(CC3)CC(=O)c3nc(C(C)(C)C)sc3C4)cc2c1 [Example 15, 2-(tert-butyl)-1′-(8-methyl-3-(methylamino)quinoline-6-carbonyl)-5H-spiro[benzo[d]thiazole-6,4′-piperidin]-4(7H)-one]
7.3 | Cc1cc(C(=O)N2CCC3(CC2)CC(=O)c2nc(C(C)(C)C)sc2C3)cc2ccccc12 [Example 16, 2-(tert-butyl)-1′-(4-methyl-2-naphthoyl)-5H-spiro[benzo[d]thiazole-6,4′-piperidin]-4(7H)-one]
9.6 | Cc1cc(C(=O)N2CCC3(CC2)CC(=O)c2nc(C(C)(C)C)sc2C3)cc2cc[nH]c12 [Example 17, 2-(tert-butyl)-1′-(7-methyl-1H-indole-5-carbonyl)-5H-spiro[benzo[d]thiazole-6,4′-piperidin]-4(7H)-one]
9.9 | COc1cnc2c(C)cc(C(=O)N3CCC4(CC3)CC(=O)c3nc(C(C)(C)C)sc3C4)cc2c1 [Example 19, 2-(tert-butyl)-1′-(3-methoxy-8-methylquinoline-6-carbonyl)-5H-spiro[benzo[d]thiazole-6,4′-piperidin]-4(7H)-one]
5.1 | COc1cc(C(=O)N2CCC3(CC2)CC(=O)c2nc(C(C)(C)C)sc2C3)c2[nH]ncc2c1C [Example 33, 2-(tert-butyl)-1′-(5-methoxy-4-methyl-1H-indazole-7-carbonyl)-5H-spiro[benzo[d]thiazole-6,4′-piperidin]-4(7H)-one]
3.9 | CN(C)c1cc(C(=O)N2CCC3(CC2)CC(=O)c2nc(C(C)(C)C)sc2C3)cc(-c2ccccc2)n1 [Example 68]
16.1 | COc1cc(C(=O)N2CCC3(CC2)CC(=O)c2nc(C(C)(C)C)sc2C3)cc(-c2ccccc2)n1 [Example 69]
4.6 | CC(C)(C)Nc1ccc2ccc(C(=O)N3CCC4(CC3)CC(=O)c3nc(C(C)(C)C)sc3C4)cc2n1 [Example 70]
13.6 | CNc1cc(C(=O)N2CCC3(CC2)CC(=O)c2nc(C(C)(C)C)sc2C3)cc(-c2ccccc2)n1 [Example 71]
10000 | CC(C)(C)c1nc2c(s1)CC1(CCN(C(=O)c3ccc4nccc(O)c4c3)CC1)CC2=O [Example 72]
189 | CNc1nc2ccccc2cc1C(=O)N1CCC2(CC1)CC(=O)c1nc(C(C)(C)C)sc1C2 [Example 74]
17.6 | COc1cc(C(=O)N2CCC3(CC2)CC(=O)c2nc(C(C)(C)C)sc2C3)c2[nH]ncc2c1 [Example 75]
65.4 | Cc1cc(C(=O)N2CCC3(CC2)CC(=O)c2nc(C(C)(C)C)sc2C3)cc2ccn(C)c12 [Example 76]
9.4 | CNc1nc2ccc(OC)cc2cc1C(=O)N1CCC2(CC1)CC(=O)c1nc(C(C)(C)C)sc1C2 [Example 77]
7.6 | CC(C)(C)c1nc2c(s1)CC1(CCN(C(=O)c3cc(Cl)c4cc[nH]c4c3)CC1)CC2=O [Example 78]
109 | COc1ccc2cc(C(=O)N3CCC4(CC3)CC(=O)c3nc(C(C)(C)C)sc3C4)cc(C)c2n1 [Example 80]
6.1 | Cc1cc(C(=O)N2CCC3(CC2)CC(=O)c2nc(C(C)(C)C)sc2C3)cc2c1ccn2C [Example 82]
11.1 | COc1cc(C(=O)N2CCC3(CC2)CC(=O)c2nc(C(C)(C)C)sc2C3)cc2c1ccn2C [Example 83]
7 | Cc1c(O)c(C(=O)N2CCC3(CC2)CC(=O)c2nc(C(C)(C)C)sc2C3)cc2ccccc12 [Example 85]

IC50 [nM] | SMILES
14.3 | COc1cc(C(=O)N2CCC3(CC2)CC(=O)c2nc(C(C)(C)C)sc2C3)nc2c(OC)cccc12 [Example 86]
6.2 | Cc1cn(C)c2c(C)cc(C(=O)N3CCC4(CC3)CC(=O)c3nc(C(C)(C)C)sc3C4)cc12 [Example 87]
15 | CC(C)(C)c1nc2c(s1)CC1(CCN(C(=O)c3ccc(Cl)c4[nH]ccc34)CC1)CC2=O [Example 88]
6.3 | CC(C)(C)c1nc2c(s1)CC1(CCN(C(=O)c3ccc(Cl)c4cc[nH]c34)CC1)CC2=O [Example 89]
9.6 | CC(C)(C)c1nc2c(s1)CC1(CCN(C(=O)c3cc(Cl)cc4cc[nH]c34)CC1)CC2=O [Example 90]
14 | Cc1cccc2ccc(C(=O)N3CCC4(CC3)CC(=O)c3nc(C(C)(C)C)sc3C4)cc12 [Example 91]
2.4 | Cc1c[nH]c2c(C)cc(C(=O)N3CCC4(CC3)CC(=O)c3nc(C(C)(C)C)sc3C4)cc12 [Example 92]
19.5 | Cc1cc(C(=O)N2CCC3(CC2)CC(=O)c2nc(C(C)(C)C)sc2C3)cc2c1NCCC2 [Example 93]
46.5 | COc1cc(C(=O)N2CCC3(CC2)CC(=O)c2nc(C(C)(C)C)sc2C3)cc2c(C)ccnc12 [Example 95]
26.1 | Cc1ccnc2c(C)cc(C(=O)N3CCC4(CC3)CC(=O)c3nc(C(C)(C)C)sc3C4)cc12 [Example 96]
8.6 | COc1cc(C(=O)N2CCC3(CC2)CC(=O)c2nc(C(C)(C)C)sc2C3)c2[nH]nc(C)c2c1 [Example 98]
3.1 | COc1cc(C(=O)N2CCC3(CC2)CC(=O)c2nc(C(C)(C)C)sc2C3)cc2c(OC)nccc12 [Example 100]
10.1 | COc1cnc2c(OC)cc(C(=O)N3CCC4(CC3)CC(=O)c3nc(C(C)(C)C)sc3C4)cc2c1 [Example 101]
5.4 | COc1cc(C(=O)N2CCC3(CC2)CC(=O)c2nc(C(C)(C)C)sc2C3)cc2c1c(C)nn2C [Example 103]
6.7 | COc1cc(C(=O)N2CCC3(CC2)CC(=O)c2nc(C(C)(C)C)sc2C3)cc2cc(C3CC3)cnc12 [Example 104]
33.6 | CCc1cnc2c(OC)cc(C(=O)N3CCC4(CC3)CC(=O)c3nc(C(C)(C)C)sc3C4)cc2c1 [Example 105]
12.9 | COc1cc(C(=O)N2CCC3(CC2)CC(=O)c2nc(C(C)(C)C)sc2C3)cc2cc[nH]c12 [Example 106]
12.3 | CCc1n[nH]c2c(OC)cc(C(=O)N3CCC4(CC3)CC(=O)c3nc(C(C)(C)C)sc3C4)cc12 [Example 107]
5.6 | CCc1nn(C)c2c(OC)cc(C(=O)N3CCC4(CC3)CC(=O)c3nc(C(C)(C)C)sc3C4)cc12 [Example 108]

Tested on: SZ95 sebocytes
Assay: Radiometric measurement of de novo lipogenesis in cultured human sebocytes
Type: cell-based
Conditions: Geomean IC50, n>2 unless * then n=1, 14C acetate incorporation into lipids (DNL)
Protocol: SZ95 sebocytes were grown in Human Sebocyte Growth Medium (HSGM) containing Sebomed® basal medium (Sigma-Aldrich, F8205) supplemented with 10% heat-inactivated fetal bovine serum (Gibco, 10100-147), 1% penicillin/streptomycin (Gibco, 15070-063), 1 mM calcium chloride (Fisher, BP9742-10X5) and 5 ng/mL recombinant human epidermal growth factor (Gibco, PHG0311). At 90% confluence, cells were washed with PBS and then detached with 0.05% Trypsin-EDTA (Gibco, 25300054). Prior to starting the assay, cells were centrifuged and resuspended in HSGM containing 5% charcoal-stripped serum (Life Technologies, 12676-029) instead of 10% heat-inactivated fetal bovine serum. Cells were added to 24-well plates at a density of 0.25×10^6 cells/well and incubated overnight at 37° C. to allow the cells to adhere to the culture plate. Cells were then treated with a dose response of compound (30, 1, 0.03, 0.006, 0.0009, 0.0002, and 0.00003 μM) with each concentration tested in duplicate. Briefly, compounds were dissolved in DMSO stocks and diluted 1:1000 into HSGM with charcoal-stripped media. The vehicle control wells were treated with 0.1% DMSO. After a 1-hour preincubation with compound or vehicle at 37° C., 0.25 μCi ^14C sodium acetate (American Radiolabeled Chemicals: ARC, 0173A) was added to each well. Plates were incubated for an additional two hours at 37° C. At the end of the incubation period, cells were removed from incubator, placed on ice, and then washed twice with ice-cold PBS to remove free ^14C-sodium acetate. Plates were sealed and stored at −20° C. until analysis. To induce lysis, 125 μL of mammalian protein extraction reagent (MPER; Fisher, 78501) was added to each well. Plates were shaken for 1 hour at room temperature and lysates transferred to individual 2 mL polypropylene tubes. Wells were then washed with 175 μL PBS, which was added to lysates. A chloroform:methanol solution (1:1 v/v, 450 μL) was added to each tube. All tubes were vortexed for 10 seconds and centrifuged at 14,000×g for 5 minutes at room temperature to separate the aqueous and organic phases. A 25 μL aliquot was removed from the bottom organic layer of each sample and added to 6 mL Optiphase Supermix scintillation fluid (PerkinElmer, 1200-439). Counts of ^14C were assessed by scintillation counting. DNL (counts of ^14C incorporated into lipids) was expressed as a percentage for compound treated cells relative to the vehicle control. IC50 values were determined using a non-linear regression (four parameter with variable slope) in GraphPad Prism.

IC50 [nM] | SMILES
13.5 | COc1cc(C(=O)N2CCC3(CC2)CC(=O)c2nc(C(C)(C)C)sc2C3)cc2c(C)nn(C)c12 [Example 13, 2-(tert-butyl)-1′-(7-methoxy-1,3-dimethyl-1H-indazole-5-carbonyl)-5H-spiro[benzo[d]thiazole-6,4′-piperidin]-4(7H)-one]
12.9 | CNc1cnc2c(C)cc(C(=O)N3CCC4(CC3)CC(=O)c3nc(C(C)(C)C)sc3C4)cc2c1 [Example 15, 2-(tert-butyl)-1′-(8-methyl-3-(methylamino)quinoline-6-carbonyl)-5H-spiro[benzo[d]thiazole-6,4′-piperidin]-4(7H)-one]
18.1 | Cc1cc(C(=O)N2CCC3(CC2)CC(=O)c2nc(C(C)(C)C)sc2C3)cc2ccccc12 [Example 16, 2-(tert-butyl)-1′-(4-methyl-2-naphthoyl)-5H-spiro[benzo[d]thiazole-6,4′-piperidin]-4(7H)-one]
15.6 | Cc1cc(C(=O)N2CCC3(CC2)CC(=O)c2nc(C(C)(C)C)sc2C3)cc2cc[nH]c12 [Example 17, 2-(tert-butyl)-1′-(7-methyl-1H-indole-5-carbonyl)-5H-spiro[benzo[d]thiazole-6,4′-piperidin]-4(7H)-one]
21.1 | COc1cnc2c(C)cc(C(=O)N3CCC4(CC3)CC(=O)c3nc(C(C)(C)C)sc3C4)cc2c1 [Example 19, 2-(tert-butyl)-1′-(3-methoxy-8-methylquinoline-6-carbonyl)-5H-spiro[benzo[d]thiazole-6,4′-piperidin]-4(7H)-one]
38.1 | COc1cc(C(=O)N2CCC3(CC2)CC(=O)c2nc(C(C)(C)C)sc2C3)c2[nH]ncc2c1C [Example 33, 2-(tert-butyl)-1′-(5-methoxy-4-methyl-1H-indazole-7-carbonyl)-5H-spiro[benzo[d]thiazole-6,4′-piperidin]-4(7H)-one]
